According to patent EP0346068A2, “D-Cys6 vasopressin antagonists” (SMITHKLINE BECKMAN CORPORATION, priority 1988, dated 1989):
Positions of bridges follow the written chain, without caps; N, C: chain ends. No end group written: not given here.

System: Adult female mongrel dogs
Assay: Partial agonist screen in indomethacin-treated dogs under water diuresis (urine volume and osmolality)
Format: in vivo
Experimental: The compounds are tested for partial agonist activity by the following procedures:
Adult female mongrel dogs are fasted for 18 hours prior to testing. The studies are conducted under steady state water diuresis initiated by a 5% body weight water load and a 3% dextrose infusion. At 0 hour, indomethacin, a cyclooxygenase inhibitor, is administered (2 mg/kg i.v. bolus and 3 mg/kg/hr i.v. infusion). Twenty minutes later, the test compound is administered i.v. Urine volume and osmolality are measured every 10 minutes for 4 hours.
The indomethacin dog model may predict the agonist activity of a compound in man.

ADH: the natural anti-diuretic hormone (ADH), vasopressin (CYFQNCPRG-NH2; disulfide 1-6; ends not checked; UniProt P01185 20-28, looked up)
antidiuretic activity (urine osmolality, volume) after treatment with indomethacin: potentiates the antidiuretic activity
